Calls of active or inactive are those of the source. No cut-off for these calls is given here.
Legend:
Pseudomonas aeruginosa [1] = assay: Antibacterial activity against Pseudomonas aeruginosa PAO1 infected in BALB/c mouse wound infection model assessed as bacterial survival rate in wound at 2.5 uM administered to wound once a day for 3 days in dropwise manner in presence of ciprofloxacin; type: functional; details: PAO1, 72 h, time 3 day
[2] = Toxicity in BALB/c mouse wound infection model assessed as heart damage measured for 9 days by H and E staining based analysis; type: tissue-based; details: in vivo, 216 h, time 9 day
[3] = Toxicity in BALB/c mouse assessed as spleen damage by H and E staining based analysis; type: tissue-based; details: in vivo
Pseudomonas aeruginosa [4] = assay: Anti-motility activity against Pseudomonas aeruginosa PAO1 assessed as reduction in swimming motility at 10 uM incubated for 24 hrs relative to control; type: functional; design: scale not given: the % may be the effect or the level left
[5] = Inhibition of quorum sensing system in Pseudomonas aeruginosa PAO1-pqsa-gfp assessed as reduction in fluorescence intensity at 0.3125 to 10 uM measured upto 16 hrs by GFP reporter strain assay; details: dose 0.3125-10 µM
Pseudomonas aeruginosa [6] = assay: Antivirulence activity in Pseudomonas aeruginosa PAO1 assessed as reduction in extracellular polysaccharides production at 10 uM incubated for 24 hrs relative to control; type: functional; design: scale not given: the % may be the effect or the level left
[7] = Toxicity in BALB/c mouse assessed as kidney damage by H and E staining based analysis; details: in vivo
Pseudomonas aeruginosa [8] = assay: Antibiofilm activity against Pseudomonas aeruginosa PAO1 assessed as reduction in pFe(III) content incubated for 24 hrs; type: functional
Pseudomonas aeruginosa [9] = assay: Antibiofilm activity against Pseudomonas aeruginosa PA1167 assessed as inhibition of biofilm formation incubated for 24 hrs by crystal violet staining based analysis; type: functional, organism-based
[10] = Toxicity in BALB/c mouse wound infection model assessed as lung damage measured for 9 days by H and E staining based analysis; type: tissue-based; details: in vivo, 216 h, time 9 day
Pseudomonas aeruginosa [11] = assay: Antibiofilm activity against Pseudomonas aeruginosa PAO1 assessed as increase in pyochelin level incubated for 2 hrs by fluorescence based analysis; type: functional, organism-based; details: dose 0.3125-10 µM
Pseudomonas aeruginosa [12] = assay: Antibacterial activity against Pseudomonas aeruginosa PAO1 infected in BALB/c mouse wound infection model assessed as bacterial survival rate in wound at 1 mg/mL administered to wound once a day for 3 days in dropwise manner; type: functional; details: PAO1, 72 h, time 3 day
Pseudomonas aeruginosa [13] = assay: Antibiofilm activity against Pseudomonas aeruginosa PAO1 assessed as increase in pyoverdine level incubated for 2 hrs by fluorescence based analysis; type: functional, organism-based; details: dose 0.3125-10 µM
Pseudomonas aeruginosa [14] = assay: Antivirulence activity in Pseudomonas aeruginosa PAO1 assessed as reduction in pyocyanin at 10 uM production incubated for 24 hrs relative to control; type: functional; design: scale not given: the % may be the effect or the level left
Pseudomonas aeruginosa [15] = assay: Antibiofilm activity against Pseudomonas aeruginosa PA1121 assessed as inhibition of biofilm formation incubated for 24 hrs by crystal violet staining based analysis; type: functional, organism-based
Pseudomonas aeruginosa [16] = assay: Antivirulence activity in Pseudomonas aeruginosa PAO1 assessed as reduction in pyocyanin production incubated for 24 hrs; type: functional, organism-based; details: dose 10.0 µM
Pseudomonas aeruginosa [17] = assay: Antivirulence activity in Pseudomonas aeruginosa PAO1 assessed as reduction in extracellular polysaccharides production incubated for 24 hrs; type: functional, organism-based; details: dose 0.3125-10 µM
[18] = Toxicity in BALB/c mouse wound infection model assessed as liver damage measured for 9 days by H and E staining based analysis; type: tissue-based; details: in vivo, 216 h, time 9 day
Pseudomonas aeruginosa [19] = assay: Antibiofilm activity against Pseudomonas aeruginosa PAO1 assessed as reduction in iron content at 10 uM incubated for 24 hrs by cell total iron colorimetric assay relative to control; type: functional; design: scale not given: the % may be the effect or the level left
[20] = Toxicity in BALB/c mouse wound infection model assessed as spleen damage measured for 9 days by H and E staining based analysis; type: tissue-based; details: in vivo, 216 h, time 9 day
Pseudomonas aeruginosa [21] = assay: Antivirulence activity in Pseudomonas aeruginosa PAO1 assessed as reduction in elastase production at 10 uM incubated for 24 hrs relative to control; type: functional; design: scale not given: the % may be the effect or the level left
Pseudomonas aeruginosa [22] = assay: Antibacterial activity against Pseudomonas aeruginosa PAO1 assessed as inhibition of bacterial growth incubated for 24 hrs by serial dilution method; type: functional
[23] = Toxicity in BALB/c mouse wound infection model assessed as change in body weight measured for 9 days; details: in vivo, 216 h, time 9 day
Pseudomonas aeruginosa [24] = assay: Anti-motility activity against Pseudomonas aeruginosa PAO1 assessed as reduction in pili formation at 0.3125 to 10 uM incubated for 16 hrs by SEM analysis; type: functional, organism-based; details: dose 0.3125-10 µM
RAW264.7 = assay: Cytotoxicity against mouse RAW264.7 cells assessed as reduction in cell viability at < 100 uM incubated for 24 hrs by MTT assay; type: toxicity, cell-based; details: raw264.7, 24 h
[25] = Inhibition of quorum sensing system in Pseudomonas aeruginosa PAO1-lasB-gfp assessed as reduction in fluorescence intensity at 0.3125 to 10 uM measured upto 16 hrs by GFP reporter strain assay; details: dose 0.3125-10 µM
Pseudomonas aeruginosa [26] = assay: Antibiofilm activity against Pseudomonas aeruginosa PAO1 assessed as fold increase in pyoverdine level at 10 uM incubated for 2 hrs by fluorescence based analysis; type: functional
Pseudomonas aeruginosa [27] = assay: Antibacterial activity against Pseudomonas aeruginosa PAO1 infected in BALB/c mouse wound infection model assessed as reduction in wound area at 2.5 uM administered to wound once a day for 3 days and measured after 9 days in dropwise manner in presence of ciprofloxacin; type: functional; design: scale not given: the % may be the effect or the level left; details: time 12 day
[28] = Toxicity in BALB/c mouse assessed as lung damage by H and E staining based analysis; details: in vivo
Pseudomonas aeruginosa [29] = assay: Antibacterial activity against Pseudomonas aeruginosa PAO1 infected in BALB/c mouse wound infection model assessed as reduction in wound area at 2.5 uM administered to wound once a day for 3 days and measured after 9 days in dropwise manner; type: functional; design: scale not given: the % may be the effect or the level left; details: time 12 day
Pseudomonas aeruginosa [30] = assay: Anti-motility activity against Pseudomonas aeruginosa PAO1 assessed as reduction in swarming motility incubated for 24 hrs; type: functional, organism-based; details: dose 0.3125-10 µM
Pseudomonas aeruginosa [31] = assay: Antibacterial activity against Pseudomonas aeruginosa PAO1 infected in BALB/c mouse wound infection model assessed as bacterial survival rate in wound at 2.5 uM administered to wound once a day for 3 days in dropwise manner in presence of tobramycin; type: functional; details: PAO1, 72 h, time 3 day
[32] = Toxicity in BALB/c mouse wound infection model assessed as kidney damage measured for 9 days by H and E staining based analysis; type: tissue-based; details: in vivo, 216 h, time 9 day
[33] = Inhibition of quorum sensing system in Pseudomonas aeruginosa PAO1-gfp assessed as reduction in fluorescence intensity at 0.3125 to 10 uM measured upto 16 hrs by GFP reporter strain assay; details: dose 0.3125-10 µM
Pseudomonas aeruginosa [34] = assay: Antibiofilm activity against Pseudomonas aeruginosa PAO1 assessed as inhibition of biofilm formation at 0.15625 uM incubated for 24 hrs by crystal violet staining based analysis relative to control; type: functional
Pseudomonas aeruginosa [35] = assay: Antibiofilm activity against Pseudomonas aeruginosa PAO1 assessed as inhibition of biofilm formation at 2.5 incubated for 24 hrs by crystal violet staining based analysis; type: functional
[36] = Toxicity in zebrafish assessed as survival rate at <100 uM measured upto 120 hrs; design: species or system Danio rerio; details: in vivo
Pseudomonas aeruginosa [37] = assay: Antibiofilm activity against Pseudomonas aeruginosa PAO1 assessed as decrease in colony forming counts incubated for 24 hrs by crystal violet staining based analysis; type: functional, organism-based; details: dose 0.15625-2.5 µM
Pseudomonas aeruginosa [38] = assay: Antibiofilm activity against Pseudomonas aeruginosa PAO1 assessed as decrease in biofilm formation incubated for 24 hrs by crystal violet staining based analysis; type: functional, organism-based; details: dose 0.3125-10 µM
[39] = Hemolytic activity in mouse red blood cells at < 40 uM; type: toxicity, cell-based; details: erythrocyte
Pseudomonas aeruginosa [40] = assay: Anti-motility activity against Pseudomonas aeruginosa PAO1 assessed as reduction in swimming motility incubated for 24 hrs; type: functional, organism-based; details: dose 0.3125-10 µM
Pseudomonas aeruginosa [41] = assay: Antibiofilm activity against Pseudomonas aeruginosa PA108 assessed as inhibition of biofilm formation incubated for 24 hrs by crystal violet staining based analysis; type: functional, organism-based
[42] = Toxicity in BALB/c mouse assessed as liver damage by H and E staining based analysis; type: tissue-based; details: in vivo
[43] = Hemolytic activity in rabbit red blood cells at < 40 uM; type: toxicity, cell-based, Oryctolagus cuniculus; details: erythrocyte

## COc1ccc2nc(NCC(=O)NCCCCC(=O)NO)sc2c1
Pseudomonas aeruginosa [1]
  survival at 2.5 µM: 0.45%
[2]
  Activity: Non-toxic
[3]
  Activity: Non-toxic
Pseudomonas aeruginosa [4]
  Activity: 64%
[5]
  inhibition: Active
Pseudomonas aeruginosa [6]
  Activity: 58%
[7]
  Activity: Non-toxic
Pseudomonas aeruginosa [8]
  Activity: 19.61
Pseudomonas aeruginosa [9]
  Activity: Active
[10]
  Activity: Non-toxic
Pseudomonas aeruginosa [11]
  Activity: Dose-dependent-effect
Pseudomonas aeruginosa [12]
  survival at 1000 µg/mL: 0%
Pseudomonas aeruginosa [13]
  Activity: Dose-dependent-effect
Pseudomonas aeruginosa [14]
  Activity: 42%
Pseudomonas aeruginosa [15]
  Activity: Active
Pseudomonas aeruginosa [16]
  Activity: Dose-dependent-effect
Pseudomonas aeruginosa [17]
  Activity: Dose-dependent-effect
[18]
  Activity: Non-toxic
Pseudomonas aeruginosa [19]
  Activity: 57%
[20]
  Activity: Non-toxic
Pseudomonas aeruginosa [21]
  Activity: 43%
Pseudomonas aeruginosa [22]
  MIC: > 256 µM
[23]
  Activity: Non-toxic
Pseudomonas aeruginosa [24]
  Activity: Active
RAW264.7
  Activity: Non-toxic
[25]
  inhibition: Active
Pseudomonas aeruginosa [26]
  fold change (FC): 3.4
Pseudomonas aeruginosa [27]
  Activity: 38%
[28]
  Activity: Non-toxic
Pseudomonas aeruginosa [29]
  Activity: 55%
Pseudomonas aeruginosa [30]
  Activity: Dose-dependent-effect
Pseudomonas aeruginosa [31]
  survival at 2.5 µM: 0.97%
[32]
  Activity: Non-toxic
[33]
  inhibition: inactive
Pseudomonas aeruginosa [34]
  inhibition at 0.1562 µM: 40%
Pseudomonas aeruginosa [35]
  inhibition (INH): 65%
[36]
  Activity: Non-toxic
Pseudomonas aeruginosa [37]
  Activity: Dose-dependent-effect
Pseudomonas aeruginosa [38]
  Activity: Dose-dependent-effect
[39]
  Activity: Non-toxic
Pseudomonas aeruginosa [40]
  Activity: Dose-dependent-effect
Pseudomonas aeruginosa [41]
  Activity: Active
[42]
  Activity: Non-toxic
[43]
  Activity: Non-toxic
